According to patent US7560547B2, “Hydroxyalkyl cyclic diamine compounds” (Kowa Co., Ltd., priority 2002, dated 2009):

Row | Structure (SMILES) | melting point [°C]
1 | Cc1cc(Br)c([N+](=O)[O-])c(Br)n1 [Example 1, 2,4-dibromo-6-methyl-3-nitropyridine] | 118 to 120
2 | Cc1cc(Br)c(N)c(Br)n1 [Example 2, 3-amino-2,4-dibromo-6-methylpyridine] | 93 to 94
3 | Cc1cc(Br)c(NC(=O)CBr)c(Br)n1 [Example 3, N-[2,4-dibromo-6-methylpyridin-3-yl]-2-bromoacetamide] | 197 to 199

Next, values leading:

Row | melting point [°C] | Structure (SMILES)
4 | 184 to 185 | Cc1cc(Cl)c(NC(=O)CBr)c(Cl)n1 [Example 5, N-[2,4-dichloro-6-methylpyridin-3-yl]-2-bromoacetamide]
5 | 119 to 120 | CSc1cc(C)nc(SC)c1NC(=O)CN1CCN(CCO)CC1 [Example 7, 2-[4-(2-hydroxyethyl)piperazin-1-yl]-N-[2,4-bis(methylthio)-6-methylpyridin-3-yl]acetamide]
